Laboratory results published in US20250134842A1, “FATTY ACID MIMETICS AS MODULATORS OF NUCLEAR RECEPTOR TLX (NR2E1)” (Trustees of Dartmouth College, priority 2023, published 2025).

Target: nuclear receptor TLX (NR2E1) ligand-binding domain (Homo sapiens (Human), UniProt Q9Y466)
Assay: AlphaScreen assay detecting TLX-RIP140 NR box peptide interaction
Type: biochemical
Details: for EC50 / Efficacy (fold increase): his-tagged TLX LBD, biotinylated RIP140-L6 peptide recruitment; for Emax: read-out: Relative efficacy (%)
Protocol: In these experiments, compounds from Example 1 were evaluated in a biochemical assay to characterize ligand binding to TLX by detecting alterations in the ability of the TLX ligand binding domain to recruit an NR box peptide derived from the nuclear receptor-interacting protein 1 (NRIP1; receptor-interacting protein 140 (RIP140) transcriptional cofactor. RIP140 has been previously identified as a TLX interacting protein (Corso-Diaz X, et al. (2016) Co-activator candidate interactions for orphan nuclear receptor NR2E1. BMC Genomics 17:832).
AlphaScreen (Perkin Elmer, Shelton, CT) technology was used to detect the TLX-RIP140 NR box peptide interaction. The AlphaScreen assay was performed as previously described using other nuclear receptors including ROR, FXR, LXR, VDR and RXR (Bettoun D J, et al., (2003) Mol Endocrinol 17:2320-2328; Bramlett K S, et al., (2003) Journal of Pharmacology and Experimental Therapeutics 307:291-296; Houck K A, at al., (2004) Mol Genet Metab 83:184-187; Kumar N, et al., (2010) Mol Pharmacol 77:228-236; and Wang Y, et al., (2010) ACS Chemical Biology: 1029-1034. The present experiments used the N-terminal his-tagged ligand-binding domain (LBD) of TLX (NovAliX SAS, Strasbourg, France) and an N-terminal biotinylated RIP140-L6 peptide with a N-terminal KGG linker, namely ([…] (aa484-513)).

Chain of nuclear receptor TLX (NR2E1) ligand-binding domain (Q9Y466 155-383): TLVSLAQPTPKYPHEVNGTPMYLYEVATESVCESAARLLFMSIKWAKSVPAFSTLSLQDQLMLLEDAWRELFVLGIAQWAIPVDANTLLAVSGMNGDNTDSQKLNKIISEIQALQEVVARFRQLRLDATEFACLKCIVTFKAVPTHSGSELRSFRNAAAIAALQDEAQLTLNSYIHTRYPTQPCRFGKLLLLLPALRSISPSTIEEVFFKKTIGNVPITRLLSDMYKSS

CCCCC[C@H](C)/C=C(/C)C/C(C)=C/[C@@H](C)CCCCCC(=O)O [Compound 3-F]
EC50: 0.9 µM | Efficacy (fold increase): 6.0 fold | Emax (relative to oleic acid = 100.0): 71.4%

CCCCCCC[C@H](C)/C=C(/C)C/C(C)=C/[C@H](C)CCCC(=O)O [Compound 2-E]
EC50: 1.3 µM | Efficacy (fold increase): 5.8 fold | Emax (relative to oleic acid = 100.0): 69%

CCCCC[C@H](C)/C=C(/C)C/C(C)=C/[C@H](C)CCCCCC(=O)O [Compound 3-E]
EC50: 1 µM | Efficacy (fold increase): 6.3 fold | Emax (relative to oleic acid = 100.0): 75%

CCCCCCCC/C=C\CCCCCCCC(=O)O [Oleic Acid, oleic acid, reference compound]
EC50: 3.6 µM | Efficacy (fold increase): 8.4 fold | Relative efficacy (%) (relative to oleic acid = 100.0): 100.0%

CCCCC[C@@H](C)/C=C(/C)C/C(C)=C/[C@@H](C)CCCCCC(=O)O [Compound 3-D]
EC50: 1.2 µM | Efficacy (fold increase): 6.1 fold | Emax (relative to oleic acid = 100.0): 72.6%

CCCCCCCCC[C@H](C)/C=C(/C)C/C(C)=C/[C@H](C)CC(=O)O [Compound 1-E]
EC50: 1.7 µM | Efficacy (fold increase): 6.2 fold | Emax (relative to oleic acid = 100.0): 73.8%

CCCC/C=C(/C)C/C(C)=C/[C@@H](C)CCCCCCCC(=O)O [Compound 4-B]
EC50: 3 µM | Efficacy (fold increase): 7.1 fold | Emax (relative to oleic acid = 100.0): 84.5%

CCCCC[C@@H](C)/C=C(/C)C/C(C)=C/[C@H](C)CCCCCC(=O)O [Compound 3-C]
EC50: 0.8 µM | Efficacy (fold increase): 5.5 fold | Emax (relative to oleic acid = 100.0): 65.5%

CCCCCCCCCC/C=C(/C)C/C(C)=C/[C@@H](C)CC(=O)O [Compound 1-B]
EC50: 2.4 µM | Efficacy (fold increase): 6.5 fold | Emax (relative to oleic acid = 100.0): 77.4%

CCCCCCC[C@@H](C)/C=C(/C)C/C(C)=C/[C@H](C)CCCC(=O)O [Compound 2-C]
EC50: 1.5 µM | Efficacy (fold increase): 6.6 fold | Emax (relative to oleic acid = 100.0): 78.6%

CCCCCCCC/C=C(/C)C/C(C)=C/[C@H](C)CCCC(=O)O [Compound 2-A]
EC50: 2.5 µM | Efficacy (fold increase): 6.6 fold | Emax (relative to oleic acid = 100.0): 78.6%

CCCCCCC[C@@H](C)/C=C(/C)C/C(C)=C/[C@@H](C)CCCC(=O)O [Compound 2-D]
EC50: 1.3 µM | Efficacy (fold increase): 5.8 fold | Emax (relative to oleic acid = 100.0): 69%

CCCCCC/C=C(/C)C/C(C)=C/[C@H](C)CCCCCC(=O)O [Compound 3-A]
EC50: 1.6 µM | Efficacy (fold increase): 6.5 fold | Emax (relative to oleic acid = 100.0): 77.4%

CCCCCCCCCC/C=C(/C)C/C(C)=C/[C@H](C)CC(=O)O [Compound 1-A]
EC50: 2.2 µM | Efficacy (fold increase): 6.1 fold | Emax (relative to oleic acid = 100.0): 72.6%

CCCC/C=C(/C)C/C(C)=C/[C@H](C)CCCCCCCC(=O)O [Compound 4-A]
EC50: 1.5 µM | Efficacy (fold increase): 6.6 fold | Emax (relative to oleic acid = 100.0): 78.6%

CCCCCCC[C@H](C)/C=C(/C)C/C(C)=C/[C@@H](C)CCCC(=O)O [Compound 2-F]
EC50: 1.6 µM | Efficacy (fold increase): 6.1 fold | Emax (relative to oleic acid = 100.0): 72.6%

CCCCCCCCC[C@@H](C)/C=C(/C)C/C(C)=C/[C@@H](C)CC(=O)O [Compound 1-D]
EC50: 3.2 µM | Efficacy (fold increase): 7.1 fold | Emax (relative to oleic acid = 100.0): 84.5%

CCCCCCCCC[C@H](C)/C=C(/C)C/C(C)=C/[C@@H](C)CC(=O)O [Compound 1-F]
EC50: 1.9 µM | Efficacy (fold increase): 7.2 fold | Emax (relative to oleic acid = 100.0): 85.7%

CCCCCCCC/C=C(/C)C/C(C)=C/[C@@H](C)CCCC(=O)O [Compound 2-B]
EC50: 3.1 µM | Efficacy (fold increase): 6.6 fold | Emax (relative to oleic acid = 100.0): 78.6%

CCCCCC/C=C(/C)C/C(C)=C/[C@@H](C)CCCCCC(=O)O [Compound 3-B]
EC50: 0.9 µM | Efficacy (fold increase): 6.6 fold | Emax (relative to oleic acid = 100.0): 78.6%

CCC[C@@H](C)/C=C(/C)C/C(C)=C/[C@@H](C)CCCCCCCC(=O)O [Compound 4-D]
EC50: 1.6 µM | Efficacy (fold increase): 6.2 fold | Emax (relative to oleic acid = 100.0): 73.8%

CCC[C@@H](C)/C=C(/C)C/C(C)=C/[C@H](C)CCCCCCCC(=O)O [Compound 4-C]
EC50: 1.5 µM | Efficacy (fold increase): 6.2 fold | Emax (relative to oleic acid = 100.0): 73.8%

CCCCCCCCC[C@@H](C)/C=C(/C)C/C(C)=C/[C@H](C)CC(=O)O [Compound 1-C]
EC50: 3.1 µM | Efficacy (fold increase): 6.8 fold | Emax (relative to oleic acid = 100.0): 81%

CCC[C@H](C)/C=C(/C)C/C(C)=C/[C@H](C)CCCCCCCC(=O)O [Compound 4-E]
EC50: 1.3 µM | Efficacy (fold increase): 5.7 fold | Emax (relative to oleic acid = 100.0): 67.9%

CCC[C@H](C)/C=C(/C)C/C(C)=C/[C@@H](C)CCCCCCCC(=O)O [Compound 4-F]
EC50: 1.9 µM | Efficacy (fold increase): 6.0 fold | Emax (relative to oleic acid = 100.0): 71.4%
